# Read-outs that look alike come from different tables or passages of the source.
# What was measured:
# Morganella morganii = test: Antibiotic susceptibility of Morganella morganii strain; format: cell-based; settings: Mm1 (Morganella morganii)
# Description: (§1) All these MDR-bacteria are at least resistant to two classes of the antibiotics among five groups and/or specific antibiotics including quinolones/fluorquinolones, carbapenems, cephalosporins, aminoglycosides and piperacillin-tazobactam.
# [1] = system: Enterobacter cloacae complex; test: Antibiotic susceptibility of Enterobacter cloacae complex strain; format: cell-based; settings: Ecc1 (Enterobacter cloacae complex)
# Description: as §1
# [2] = system: S. aureus ATCC strains and MRSA; format: cell-based, Staphylococcus aureus
# [3] = system: MDR Acinetobacter baumannii; format: cell-based
# Description: as §1
# MDR E. coli = format: cell-based
# Description: as §1
# [4] = system: Staphylococcus epidermidis; format: cell-based
# Experimental: (§2) It was also tested whether compounds #63 and #285 can inhibit other coagulase-negative Staphylococcus (CNS) including S. epidermidis, S. hominis, etc. […].
# Staphylococcus hominis = format: cell-based
# Experimental: as §2
# Citrobacter koseri = test: Antibiotic susceptibility of Citrobacter koseri strain; format: cell-based; settings: Ck1 (Citrobacter koseri)
# Description: as §1
# Klebsiella pneumonia = test: Antibiotic susceptibility of Klebsiella pneumonia strains; format: cell-based
# Description: as §1
# [5] = system: Coagulase negative Staphylococcus; test: Antibiotic susceptibility of coagulase negative Staphylococcus strains; format: cell-based
# [6] = Se1 (Staphylococcus epidermidis)
# [7] = Se2 (Staphylococcus epidermidis)
# [8] = Se3 (Staphylococcus epidermidis)
# [9] = Se4 (Staphylococcus epidermidis)
# [10] = Se5 (Staphylococcus epidermidis)
# [11] = CNS1 (Coagulase negative Staphylococcus)
# [12] = CNS2 (Coagulase negative Staphylococcus)
compound,measurement,setting,value
"C[C@H]1COc2c(N3CCN(C)CC3)c(F)cc3c(=O)c(C(=O)O)cn1c23 [LVX, levofloxacin]",Antibiotic susceptibility,Morganella morganii,R
same,Antibiotic susceptibility,[1],S
same,Antibiotic susceptibility,[2]; S. aureus ATCC 25923,S
same,Antibiotic susceptibility,[2]; S. aureus ATCC 29213,S
same,Antibiotic susceptibility,[2]; S. aureus ATCC BAA 976,S
same,Antibiotic susceptibility,[2]; S. aureus ATCC BAA 977,S
same,Antibiotic susceptibility,[2]; S. aureus ATCC BAA 1026,R
same,Antibiotic susceptibility,[2]; Sa1 (MRSA),R
same,Antibiotic susceptibility,[2]; Sa2 (MRSA),R
same,Antibiotic susceptibility,[2]; Sa3 (MRSA),R
same,Antibiotic susceptibility,[2]; Sa6 (MRSA),R
same,Antibiotic susceptibility,[2]; Sa7 (MRSA),S
same,Antibiotic susceptibility,[2]; Sa9 (MRSA),R
same,Antibiotic susceptibility,[2]; Sa11 (MRSA),R
same,Antibiotic susceptibility,[2]; Sa12 (MRSA),R
same,Antibiotic susceptibility,[2]; Sa14 (MRSA),R
same,Antibiotic susceptibility,[2]; Sa15 (MRSA),R
same,Antibiotic susceptibility,[2]; Sa16 (MRSA),R
same,Antibiotic susceptibility,[2]; Sa17 (MRSA),R
same,Antibiotic susceptibility,[2]; Sa18 (MRSA),R
same,Antibiotic susceptibility,[2]; Sa19 (MRSA),S
same,Antibiotic susceptibility,[2]; Sa20 (MRSA),R
same,Antibiotic susceptibility,[2]; Sa21 (MRSA),S
same,Antibiotic susceptibility,[2]; Sa22 (MRSA),S
same,Antibiotic susceptibility,[2]; Sa23 (MRSA),S
same,Antibiotic susceptibility,[3]; Ab1 (Acinetobacter baumannii),R
same,Antibiotic susceptibility,[3]; Ab2 (Acinetobacter baumannii),I
same,Antibiotic susceptibility,[3]; Ab3 (Acinetobacter baumannii),R
same,Antibiotic susceptibility,[3]; Ab4 (Acinetobacter baumannii),R
same,Antibiotic susceptibility,[3]; Ab5 (Acinetobacter baumannii),R
same,Antibiotic susceptibility,MDR E. coli; Ec1 (E. coli),S
same,Antibiotic susceptibility,MDR E. coli; Ec2 (E. coli),R
same,Antibiotic susceptibility,MDR E. coli; Ec3 (E. coli),S
same,Antibiotic susceptibility,MDR E. coli; Ec4 (E. coli),R
same,Antibiotic susceptibility,MDR E. coli; Ec5 (E. coli),R
same,Antibiotic susceptibility,[4]; [6],R
same,Antibiotic susceptibility,[4]; [7],S
same,Antibiotic susceptibility,[4]; [8],R
same,Antibiotic susceptibility,[4]; [9],R
same,Antibiotic susceptibility,[4]; [10],R
same,Antibiotic susceptibility,Staphylococcus hominis; Sh1 (Staphylococcus hominis),R
same,Antibiotic susceptibility,Staphylococcus hominis; Sh2 (Staphylococcus hominis),S
same,Antibiotic susceptibility,Staphylococcus hominis; Sh3 (Staphylococcus hominis),S
same,Antibiotic susceptibility,Citrobacter koseri,I
same,Antibiotic susceptibility,Klebsiella pneumonia; Kp1 (Klebsiella pneumonia),S
same,Antibiotic susceptibility,Klebsiella pneumonia; Kp6 (Klebsiella pneumonia),R
same,Antibiotic susceptibility,[5]; [11],S
same,Antibiotic susceptibility,[5]; [12],R
Gentamicin,Antibiotic susceptibility,Morganella morganii,R
same,Antibiotic susceptibility,[1],R
same,Antibiotic susceptibility,[2]; S. aureus ATCC 25923,S
same,Antibiotic susceptibility,[2]; S. aureus ATCC 29213,S
same,Antibiotic susceptibility,[2]; S. aureus ATCC BAA 976,S
same,Antibiotic susceptibility,[2]; S. aureus ATCC BAA 977,S
same,Antibiotic susceptibility,[2]; S. aureus ATCC BAA 1026,R
same,Antibiotic susceptibility,[2]; Sa1 (MRSA),S
same,Antibiotic susceptibility,[2]; Sa2 (MRSA),S
same,Antibiotic susceptibility,[2]; Sa3 (MRSA),S
same,Antibiotic susceptibility,[2]; Sa5 (MRSA),S
same,Antibiotic susceptibility,[2]; Sa6 (MRSA),S
same,Antibiotic susceptibility,[2]; Sa7 (MRSA),S
same,Antibiotic susceptibility,[2]; Sa8 (MRSA),S
same,Antibiotic susceptibility,[2]; Sa9 (MRSA),S
same,Antibiotic susceptibility,[2]; Sa10 (MRSA),S
same,Antibiotic susceptibility,[2]; Sa11 (MRSA),S
same,Antibiotic susceptibility,[2]; Sa12 (MRSA),S
same,Antibiotic susceptibility,[2]; Sa14 (MRSA),S
same,Antibiotic susceptibility,[2]; Sa15 (MRSA),S
same,Antibiotic susceptibility,[2]; Sa16 (MRSA),S
same,Antibiotic susceptibility,[2]; Sa17 (MRSA),S
same,Antibiotic susceptibility,[2]; Sa18 (MRSA),S
same,Antibiotic susceptibility,[2]; Sa19 (MRSA),S
same,Antibiotic susceptibility,[2]; Sa20 (MRSA),S
same,Antibiotic susceptibility,[2]; Sa21 (MRSA),S
same,Antibiotic susceptibility,[2]; Sa22 (MRSA),S
same,Antibiotic susceptibility,[2]; Sa23 (MRSA),S
same,Antibiotic susceptibility,[3]; Ab1 (Acinetobacter baumannii),S
same,Antibiotic susceptibility,[3]; Ab2 (Acinetobacter baumannii),R
same,Antibiotic susceptibility,[3]; Ab3 (Acinetobacter baumannii),R
same,Antibiotic susceptibility,[3]; Ab4 (Acinetobacter baumannii),R
same,Antibiotic susceptibility,[3]; Ab5 (Acinetobacter baumannii),R
same,Antibiotic susceptibility,MDR E. coli; Ec1 (E. coli),R
same,Antibiotic susceptibility,MDR E. coli; Ec2 (E. coli),R
same,Antibiotic susceptibility,MDR E. coli; Ec3 (E. coli),R
same,Antibiotic susceptibility,MDR E. coli; Ec4 (E. coli),S
same,Antibiotic susceptibility,MDR E. coli; Ec5 (E. coli),S
same,Antibiotic susceptibility,[4]; [6],S
same,Antibiotic susceptibility,[4]; [7],S
same,Antibiotic susceptibility,[4]; [8],R
same,Antibiotic susceptibility,[4]; [9],R
same,Antibiotic susceptibility,[4]; [10],I
same,Antibiotic susceptibility,Staphylococcus hominis; Sh1 (Staphylococcus hominis),S
same,Antibiotic susceptibility,Staphylococcus hominis; Sh2 (Staphylococcus hominis),S
same,Antibiotic susceptibility,Staphylococcus hominis; Sh3 (Staphylococcus hominis),S
same,Antibiotic susceptibility,Citrobacter koseri,R
same,Antibiotic susceptibility,Klebsiella pneumonia; Kp1 (Klebsiella pneumonia),S
same,Antibiotic susceptibility,Klebsiella pneumonia; Kp6 (Klebsiella pneumonia),S
same,Antibiotic susceptibility,[5]; [11],S
same,Antibiotic susceptibility,[5]; [12],S
"O=C1CN(/N=C/c2ccc([N+](=O)[O-])o2)C(=O)N1 [NIT, Nitrofurantoin]",Antibiotic susceptibility,Morganella morganii,R
same,Antibiotic susceptibility,[1],S
same,Antibiotic susceptibility,[2]; S. aureus ATCC 25923,S
same,Antibiotic susceptibility,[2]; S. aureus ATCC 29213,S
same,Antibiotic susceptibility,[2]; S. aureus ATCC BAA 976,S
same,Antibiotic susceptibility,[2]; S. aureus ATCC BAA 977,S
same,Antibiotic susceptibility,[2]; S. aureus ATCC BAA 1026,S
same,Antibiotic susceptibility,[2]; Sa1 (MRSA),S
same,Antibiotic susceptibility,[2]; Sa2 (MRSA),S
same,Antibiotic susceptibility,[2]; Sa3 (MRSA),S
same,Antibiotic susceptibility,[2]; Sa6 (MRSA),S
same,Antibiotic susceptibility,[2]; Sa7 (MRSA),S
same,Antibiotic susceptibility,[2]; Sa9 (MRSA),S
same,Antibiotic susceptibility,[2]; Sa11 (MRSA),S
same,Antibiotic susceptibility,[2]; Sa12 (MRSA),S
same,Antibiotic susceptibility,[2]; Sa14 (MRSA),S
same,Antibiotic susceptibility,[2]; Sa15 (MRSA),S
same,Antibiotic susceptibility,[2]; Sa16 (MRSA),S
same,Antibiotic susceptibility,[2]; Sa17 (MRSA),S
same,Antibiotic susceptibility,[2]; Sa18 (MRSA),S
same,Antibiotic susceptibility,[2]; Sa19 (MRSA),S
same,Antibiotic susceptibility,[2]; Sa20 (MRSA),S
same,Antibiotic susceptibility,[2]; Sa21 (MRSA),S
same,Antibiotic susceptibility,[2]; Sa22 (MRSA),S
same,Antibiotic susceptibility,[2]; Sa23 (MRSA),S
same,Antibiotic susceptibility,[3]; Ab1 (Acinetobacter baumannii),R
same,Antibiotic susceptibility,[3]; Ab2 (Acinetobacter baumannii),R
same,Antibiotic susceptibility,[3]; Ab3 (Acinetobacter baumannii),R
same,Antibiotic susceptibility,[3]; Ab4 (Acinetobacter baumannii),R
same,Antibiotic susceptibility,[3]; Ab5 (Acinetobacter baumannii),R
same,Antibiotic susceptibility,MDR E. coli; Ec1 (E. coli),S
same,Antibiotic susceptibility,MDR E. coli; Ec2 (E. coli),S
same,Antibiotic susceptibility,MDR E. coli; Ec3 (E. coli),S
same,Antibiotic susceptibility,MDR E. coli; Ec4 (E. coli),S
same,Antibiotic susceptibility,MDR E. coli; Ec5 (E. coli),S
same,Antibiotic susceptibility,[4],S
same,Antibiotic susceptibility,Staphylococcus hominis,S
same,Antibiotic susceptibility,Citrobacter koseri,R
same,Antibiotic susceptibility,Klebsiella pneumonia; Kp1 (Klebsiella pneumonia),S
same,Antibiotic susceptibility,Klebsiella pneumonia; Kp6 (Klebsiella pneumonia),R
same,Antibiotic susceptibility,[5]; [11],S
same,Antibiotic susceptibility,[5]; [12],S
